Laboratory results from PubChem BioAssay AID272 (DTP/NCI, 2004).
Several values for one entry are separate records, joined by “and”; a condition that tells them apart may be missing. Identical values can stand only once. Results filed as inconclusive are left out. How the source made its calls: active means survival T/C of 150% or more; inactive means T/C below 125% in these data.

Test system: Lewis lung carcinoma i.m., BDF1 mice, T/C %
Assay: NCI In Vivo Anticancer Drug Screen. Data for tumor model Lewis Lung Carcinoma (intramuscular) in B6D2F1 (BDF1) mice
Method in brief: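 Mice carrying transplantable tumours received test compound. Survival or tumour size was recorded and expressed as the treated-group value (T) divided by the vehicle-treated control-group value (C).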

Measured: T/C

Cc1c(N)nc([C@H](CC(N)=O)NC[C@H](N)C(N)=O)nc1C(=O)N[C@H](C(=O)N[C@H](C)[C@@H](O)[C@H](C)C(=O)N[C@H](C(=O)NCCc1nc(-c2nc(C(=O)NCCC[S+](C)C)cs2)cs1)[C@@H](C)O)C(OC1OC(CO)C(O)C(O)C1OC1OC(CO)C(O)C(OC(N)=O)C1O)c1cnc[nH]1 (some centres not stated)
12 % of control and 15 % of control: endpoint: mean tumor weight, dose: 5.0 mg/kg/injection, schedule: Q01DX011 (ip), vehicle: saline, higher = larger tumour
40 % of control: endpoint: mean tumor weight, dose: 23.0 mg/kg/injection, schedule: Q04DX003 (ip), vehicle: saline, higher = larger tumour
5 % of control: endpoint: mean tumor weight, dose: 23.0 mg/kg/injection, schedule: Q01DX011 (ip), vehicle: saline, higher = larger tumour
56 % of control: endpoint: mean tumor weight, dose: 10.0 mg/kg/injection, schedule: Q04DX003 (ip), vehicle: saline, higher = larger tumour
inactive: endpoint: median survival time, dose: 2.5 mg/kg/injection, schedule: Q01DX014 (ip), vehicle: saline, higher = longer survival 113 % of control | endpoint: median survival time, dose: 3.0 mg/kg/injection, schedule: Q01DX004 (ip), vehicle: saline, higher = longer survival 116 % of control | endpoint: median survival time, dose: 3.0 mg/kg/injection, schedule: Q09DX009 (ip), vehicle: saline, higher = longer survival 119 % of control and 120 % of control | endpoint: median survival time, dose: 4.0 mg/kg/injection, schedule: Q01DX011 (ip), vehicle: saline, higher = longer survival 119 % of control | endpoint: median survival time, dose: 5.0 mg/kg/injection, schedule: Q01DX004 (ip), vehicle: saline, higher = longer survival 123 % of control | endpoint: median survival time, dose: 5.0 mg/kg/injection, schedule: Q01DX014 (ip), vehicle: saline, higher = longer survival 123 % of control | endpoint: median survival time, dose: 8.4 mg/kg/injection, schedule: Q01DX004 (ip), vehicle: saline, higher = longer survival 123 % of control | endpoint: median survival time, dose: 8.4 mg/kg/injection, schedule: Q01DX009 (ip), vehicle: none, higher = longer survival 113 % of control and 115 % of control | endpoint: median survival time, dose: 8.4 mg/kg/injection, schedule: Q09DX009 (ip), vehicle: saline, higher = longer survival 116 % of control | endpoint: median survival time, dose: 10.0 mg/kg/injection, schedule: Q01DX014 (ip), vehicle: saline, higher = longer survival 124 % of control | endpoint: median survival time, dose: 10.0 mg/kg/injection, schedule: Q04DX003 (ip), vehicle: saline, higher = longer survival 107 % of control and 108 % of control | endpoint: median survival time, dose: 12.5 mg/kg/injection, schedule: Q04DX003 (ip), vehicle: saline, higher = longer survival 122 % of control | endpoint: median survival time, dose: 14.0 mg/kg/injection, schedule: Q04DX003 (ip), vehicle: saline, higher = longer survival 112 % of control | endpoint: median survival time, dose: 18.0 mg/kg/injection, schedule: Q04DX003 (ip), vehicle: saline, higher = longer survival 124 % of control | endpoint: median survival time, dose: 20.0 mg/kg/injection, schedule: Q01DX014 (ip), vehicle: saline, higher = longer survival 75 % of control | endpoint: median survival time, dose: 23.0 mg/kg/injection, schedule: Q01DX009 (ip), vehicle: none, higher = longer survival 64 % of control and 95 % of control | endpoint: median survival time, dose: 23.0 mg/kg/injection, schedule: Q04DX003 (ip), vehicle: saline, higher = longer survival 112 % of control | endpoint: median survival time, dose: 25.0 mg/kg/injection, schedule: Q01DX001 (ip), vehicle: saline, higher = longer survival 107 % of control | endpoint: median survival time, dose: 36.0 mg/kg/injection, schedule: Q01DX001 (ip), vehicle: saline, higher = longer survival 124 % of control | endpoint: median survival time, dose: 39.0 mg/kg/injection, schedule: Q01DX004 (ip), vehicle: saline, higher = longer survival 54 % of control | endpoint: median survival time, dose: 39.0 mg/kg/injection, schedule: Q04DX003 (ip), vehicle: saline, higher = longer survival 103 % of control and 120 % of control | endpoint: median survival time, dose: 40.0 mg/kg/injection, schedule: Q01DX014 (ip), vehicle: saline, higher = longer survival 48 % of control | endpoint: median survival time, dose: 40.0 mg/kg/injection, schedule: Q04DX003 (ip), vehicle: saline, higher = longer survival 97 % of control | endpoint: median survival time, dose: 51.0 mg/kg/injection, schedule: Q01DX001 (ip), vehicle: saline, higher = longer survival 122 % of control | endpoint: median survival time, dose: 65.0 mg/kg/injection, schedule: Q04DX003 (ip), vehicle: saline, higher = longer survival 108 % of control | endpoint: median survival time, dose: 80.0 mg/kg/injection, schedule: Q04DX003 (ip), vehicle: saline, higher = longer survival 60 % of control
14 % of control and 26 % of control: endpoint: mean tumor weight (est.), dose: 23.0 mg/kg/injection, schedule: Q01DX009 (ip), vehicle: saline, higher = larger tumour
65 % of control: endpoint: mean tumor weight, dose: 36.0 mg/kg/injection, schedule: Q01DX001 (ip), vehicle: saline, higher = larger tumour
7 % of control: endpoint: mean tumor weight, dose: 8.4 mg/kg/injection, schedule: Q01DX011 (ip), vehicle: saline, higher = larger tumour
31 % of control: endpoint: mean tumor weight, dose: 40.0 mg/kg/injection, schedule: Q04DX003 (ip), vehicle: saline, higher = larger tumour
2 % of control and 12 % of control: endpoint: mean tumor weight, dose: 20.0 mg/kg/injection, schedule: Q01DX011 (ip), vehicle: saline, higher = larger tumour
12 % of control: endpoint: mean tumor weight (est.), dose: 39.0 mg/kg/injection, schedule: Q01DX009 (ip), vehicle: saline, higher = larger tumour
51 % of control: endpoint: mean tumor weight, dose: 25.0 mg/kg/injection, schedule: Q01DX001 (ip), vehicle: saline, higher = larger tumour
23 % of control: endpoint: mean tumor weight, dose: 7.5 mg/kg/injection, schedule: Q01DX011 (sc), vehicle: saline, higher = larger tumour | endpoint: mean tumor weight, dose: 12.5 mg/kg/injection, schedule: Q04DX003 (ip), vehicle: saline, higher = larger tumour
6 % of control: endpoint: mean tumor weight, dose: 14.0 mg/kg/injection, schedule: Q01DX011 (ip), vehicle: saline, higher = larger tumour
19 % of control: endpoint: mean tumor weight, dose: 6.0 mg/kg/injection, schedule: Q01DX011 (ip), vehicle: saline, higher = larger tumour | endpoint: mean tumor weight, dose: 8.5 mg/kg/injection, schedule: Q01DX011 (ip), vehicle: saline, higher = larger tumour | endpoint: mean tumor weight, dose: 39.0 mg/kg/injection, schedule: Q04DX003 (ip), vehicle: saline, higher = larger tumour
24 % of control and 42 % of control: endpoint: mean tumor weight (est.), dose: 8.4 mg/kg/injection, schedule: Q01DX009 (ip), vehicle: saline, higher = larger tumour
43 % of control: endpoint: mean tumor weight, dose: 20.0 mg/kg/injection, schedule: Q04DX003 (ip), vehicle: saline, higher = larger tumour
active: endpoint: median survival time, dose: 2.0 mg/kg/injection, schedule: Q01DX011 (ip), vehicle: saline, higher = longer survival 153 % of control | endpoint: median survival time, dose: 3.75 mg/kg/injection, schedule: Q01DX011 (sc), vehicle: saline, higher = longer survival 158 % of control | endpoint: median survival time, dose: 5.0 mg/kg/injection, schedule: Q01DX009 (ip), vehicle: none, higher = longer survival 150 % of control and 163 % of control | endpoint: median survival time, dose: 5.0 mg/kg/injection, schedule: Q01DX011 (ip), vehicle: saline, higher = longer survival 150 % of control | endpoint: median survival time, dose: 5.0 mg/kg/injection, schedule: Q09DX009 (ip), vehicle: saline, higher = longer survival 150 % of control | endpoint: median survival time, dose: 6.5 mg/kg/injection, schedule: Q01DX011 (ip), vehicle: saline, higher = longer survival 158 % of control | endpoint: median survival time, dose: 7.5 mg/kg/injection, schedule: Q01DX011 (sc), vehicle: saline, higher = longer survival 153 % of control | endpoint: median survival time, dose: 8.0 mg/kg/injection, schedule: Q01DX011 (ip), vehicle: saline, higher = longer survival 150 % of control | endpoint: median survival time, dose: 10.0 mg/kg/injection, schedule: Q01DX011 (ip), vehicle: saline, higher = longer survival 167 % of control | endpoint: median survival time, dose: 10.8 mg/kg/injection, schedule: Q01DX011 (ip), vehicle: saline, higher = longer survival 166 % of control | endpoint: median survival time, dose: 14.0 mg/kg/injection, schedule: Q01DX009 (ip), vehicle: none, higher = longer survival 159 % of control | endpoint: median survival time, dose: 15.0 mg/kg/injection, schedule: Q01DX011 (sc), vehicle: saline, higher = longer survival 161 % of control | endpoint: median survival time, dose: 16.0 mg/kg/injection, schedule: Q01DX011 (ip), vehicle: saline, higher = longer survival 150 % of control | endpoint: median survival time, dose: 18.0 mg/kg/injection, schedule: Q01DX011 (ip), vehicle: saline, higher = longer survival 152 % of control and 170 % of control | endpoint: median survival time, dose: 20.0 mg/kg/injection, schedule: Q01DX011 (ip), vehicle: saline, higher = longer survival 165 % of control | endpoint: median survival time, dose: 20.0 mg/kg/injection, schedule: Q04DX003 (ip), vehicle: saline, higher = longer survival 157 % of control and 160 % of control | endpoint: median survival time, dose: 23.0 mg/kg/injection, schedule: Q09DX009 (ip), vehicle: saline, higher = longer survival 169 % of control | endpoint: median survival time, dose: 30.0 mg/kg/injection, schedule: Q01DX011 (ip), vehicle: saline, higher = longer survival 166 % of control
27 % of control and 37 % of control: endpoint: mean tumor weight (est.), dose: 14.0 mg/kg/injection, schedule: Q01DX009 (ip), vehicle: saline, higher = larger tumour
60 % of control: endpoint: mean tumor weight, dose: 3.75 mg/kg/injection, schedule: Q01DX011 (sc), vehicle: saline, higher = larger tumour
35 % of control: endpoint: mean tumor weight, dose: 18.0 mg/kg/injection, schedule: Q04DX003 (ip), vehicle: saline, higher = larger tumour | endpoint: mean tumor weight, dose: 51.0 mg/kg/injection, schedule: Q01DX001 (ip), vehicle: saline, higher = larger tumour
38 % of control: endpoint: mean tumor weight, dose: 3.0 mg/kg/injection, schedule: Q01DX011 (ip), vehicle: saline, higher = larger tumour
18 % of control: endpoint: mean tumor weight, dose: 4.0 mg/kg/injection, schedule: Q01DX011 (ip), vehicle: saline, higher = larger tumour | endpoint: mean tumor weight, dose: 25.0 mg/kg/injection, schedule: Q04DX003 (ip), vehicle: saline, higher = larger tumour | endpoint: mean tumor weight, dose: 36.0 mg/kg/injection, schedule: Q04DX003 (ip), vehicle: saline, higher = larger tumour
44 % of control: endpoint: mean tumor weight (est.), dose: 2.5 mg/kg/injection, schedule: Q01DX009 (ip), vehicle: saline, higher = larger tumour
